Patent US12065435B2, “Compounds for the treatment of glycogen storage disorders” (HADASIT MEDICAL RESEARCH SERVICES AND DEVELOPMENT LTD., priority 2017, dated 2024)

How the values were obtained:
[1] = system: polyglucosan body (PB) in APBD patient-derived fibroblasts; test: High content (image-based) PAS screening assay for polyglucosan bodies; type: cell-based, human; details: 0, 1, 5, 10 and 50 μM
Method: All the steps of the assay were performed automatically using a Freedom Evo 150 liquid handling robot (Tecan). APBD patient-derived fibroblasts were seeded at a density of 800 cells/well in DMEM (Gibco) supplemented with 1 mM sodium pyruvate (Gibco), 1% antibiotics (Biological Industries, Israel) and 5% fetal bovine serum (Hyclone) into 384 well microclear plates (Greiner). The plates were transferred by the robotic arm (RoMa) into an automated incubator (Liconic), integrated with the robotic system, where they were incubated at 37° C. with 5% CO2. Following 24 h incubation, the medium was replaced by the robot using medium supplemented with 10 μM of each screened compound (0.1% DMSO final concentration, all prepared by the robot). The screened compounds were part of the Diverset CL collection purchased from ChemBridge (10,084 out of 50,000 molecules).
Next, these cells were cultured for another 24 h in the automated incubator, and, using the robot, washed them with PBS (Biological Industries, Israel), the cells were fixed with 4% paraformaldehyde (PFA), washed again with PBS, neutralized the previously added PFA by ammonium chloride (Sigma Aldrich), washed with PBS, permeabilized with 0.1% Triton X-100 (Sigma Aldrich), and washed again with PBS.
Following this, a robot was used to treat the fixed cells with 0.5 g/dl diastase (or amylase, Sigma Aldrich) for 5 minutes at 37° C. in the automated incubator, wash with PBS, stained with PAS (Merck), Hoechst 33342 (Sigma Aldrich) and Cell Mask Deep Red (Molecular Probes) and wash with PBS. Images of stained cells were then acquired by the IN Cell Analyzer 2000 (GE Healthcare) and analyzed using the IN Cell Investigator (GE Healthcare) applying an algorithm that quantified the PAS signal within each Cell Mask stained cell.
Images were segmented based on the Cell Mask signal which was linked with the segmentation of the nuclei, employing an empirically established sensitivity and kernel size for allowing the best segmentation. Once these nucleus-cytoplasm complex objects were selected, the software calculated the number of these objects (cell number) as well as the intensity of the PAS signal within each of them. All the assay parameters (including the acquisition exposure times, objective, and the analysis parameters) were kept constant throughout the whole screening campaign for allowing comparison of signals obtained from different batches of assay within the campaign.
The assay was performed as mentioned above, but with compound concentrations of 1, 5, 10, and 50 μM, instead of a constant concentration of 10 μM.
The discarded data was presumably associated with cells affected by toxic compounds. In the remaining data, the measured population mean PB intensity was normalized. Based on a series of images used for training, compounds were considered as positive only where following treatment the normalized PB mean intensity was at least under −1.2 z-score of the scale. Following this approach, 85 potential hits out of the 10,084 screened compounds were selected (0.84%).

[2] = biological target: T1, recombinant human GS1 (Homo sapiens, UniProt P13807); test: In vitro GS activity assay; type: biochemical; details: 50 μM; unpaired t-tests, p<0.05
T1 sequence (P13807 1-737): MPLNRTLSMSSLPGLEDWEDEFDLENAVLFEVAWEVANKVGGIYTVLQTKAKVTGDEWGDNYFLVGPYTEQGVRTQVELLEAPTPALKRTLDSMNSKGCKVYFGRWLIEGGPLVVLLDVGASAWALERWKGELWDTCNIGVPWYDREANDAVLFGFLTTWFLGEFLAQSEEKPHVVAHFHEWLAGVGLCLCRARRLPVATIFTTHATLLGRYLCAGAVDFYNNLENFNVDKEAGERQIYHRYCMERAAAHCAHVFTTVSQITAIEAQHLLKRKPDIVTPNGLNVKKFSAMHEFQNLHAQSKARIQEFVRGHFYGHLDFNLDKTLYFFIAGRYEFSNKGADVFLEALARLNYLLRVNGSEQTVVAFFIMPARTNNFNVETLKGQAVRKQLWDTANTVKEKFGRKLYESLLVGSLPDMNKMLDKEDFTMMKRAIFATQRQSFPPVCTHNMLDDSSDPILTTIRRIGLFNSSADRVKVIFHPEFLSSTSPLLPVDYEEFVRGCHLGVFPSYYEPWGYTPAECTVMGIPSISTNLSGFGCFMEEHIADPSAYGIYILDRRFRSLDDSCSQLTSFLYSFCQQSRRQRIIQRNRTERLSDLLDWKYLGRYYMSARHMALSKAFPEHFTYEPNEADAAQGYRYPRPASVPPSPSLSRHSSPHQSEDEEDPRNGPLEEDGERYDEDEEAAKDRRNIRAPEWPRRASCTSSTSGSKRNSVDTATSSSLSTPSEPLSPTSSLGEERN
Method: The reaction was carried out in 96-well plates containing 50 μl of reaction volume (50 mM Tris, pH8, 20 mM EDTA, 25 mM KF, 2 mg/ml glycogen, 10 mM Glucose-6-Phosphate, 1.65 mM UDP[14C]glucose and 100 mM UDP-glucose). To test the inhibitory effect of the hits, each one was included in the reaction at a final concentration of 50 μM. The reaction was initiated with the addition of 20 nM recombinant human GS1, followed by incubation at 37° C. for 30 min. The reaction was then stopped with the addition of 100 μl cold 100% ethanol, and the total suspension was transferred into a 96-well filter plate. Vacuum was applied to remove the ethanol. Five washing steps with 150 μl of cold 66% ethanol then fully removed any non-incorporated UDP[14C]glucose, while the labelled glycogen stayed on the well filters. The plate was dried at 37° C. incubator for 30 min. 50 μl of scintillation fluid was added to each well and the plate was read for 14C signal on Microplate scintillation and luminescence counter Top Count (Perkin Elmer).

[3] = system: APBD modeling mice (Gbe^Y329S/Y329S mouse model); test: Motor parameters in APBD modeling mice; type: in vivo
Method: This study was conducted in compounds A and B according to the schemes described in Tables 8 and 9, respectively.
As vehicle control, 0.1% DMSO was used. It is noteworthy that, in order to have a statistically significant number of animals, compound A was tested in male mice and compound B in female mice (no mixed cages were allowed).
APBD is an autosomal disease with no gender related symptoms and it was presumed that this experimental design is optimal. The mode of delivery of the compounds was intravenous (IV) injection for the first month, followed by subcutaneous injection due to lack of injection space and scaring in animal tails.
Tables 8 and 9 describe the study design for compounds A and B. both compounds were tested at the age of 4 months, two months prior to disease onset, in order to assess possible prophylactic effects, and at the age of 6 months, at disease onset, in order to assess corrective effects.
The effect of compounds A and B on various motor parameters was tested every two weeks. The results are shown in herein.
The point of reference is one time point prior to treatment initiation. Please note, since animals first treated with the compounds at 6 months of age were not injected at all before that age, they could not have been compared to animals pre-injected with vehicle. Therefore, the duration of the longitudinal studies for the cohorts first treated at the age of 6 months is shorter than that of the animals first treated at 4 months of age.

[4] = treated from 4 months of age (2 months before onset), two way ANOVA with repeated measures
[5] = treated from 4 months of age, Bonferroni's multiple comparisons test
[6] = treated from 6 months of age (at onset), two way ANOVA with repeated measures
[7] = treated from 6 months of age, Bonferroni's multiple comparisons test

COCc1c(C(=O)N2[C@@H]3CC[C@H]2CN(C)C(=O)C3)noc1C (relative stereo) [UDP #19, (1S*,6R*)-9-{[4-(methoxymethyl)-5-methylisoxazol-3-yl]carbonyl}-3-methyl-3,9-diazabicyclo[4.2.1]nonan-4-one]
dose response of diastase resistant cell associated mean PAS intensity normalized by z-score [1]: concentration dependent | effect on GS activity (direction of change) [2]: increasing | apathy, mobility and responsiveness to experimenter ([3]; 250 mg/kg, IV first month then subcutaneous): less apathic, more mobile and more responsive to intervention by the experimenter | ameliorating effect on motor parameters (summary) ([3]; 250 mg/kg, IV first month then subcutaneous, tested every two weeks): ameliorate grip strength | average duration in movement in an open field test vs vehicle [3, 4]: not different from vehicle (p<0.1) | average front paw grip strength vs vehicle [3, 4]: different from vehicle with p<0.055 | average gait length vs vehicle [3, 4]: not different from vehicle (p<0.1) | average gait width vs vehicle [3, 4]: not different from vehicle (p<0.1) | average latency to fall off a metal wire vs vehicle [3, 4]: not different from vehicle (p<0.1) | average latency to fall off a rotating cylinder (rotarod) vs vehicle [3, 4]: the latency to fall was shorter in treated animals (p<0.089) | average regularity of step distance (Coefficient of Variance of all R-R and L-L step distances) vs vehicle [3, 4]: not different from vehicle (p<0.1) | average uniformity of step alternation (|0.5-(R-L/R-R)|) vs vehicle [3, 4]: not different from vehicle (p<0.1) | extension reflex vs vehicle [3, 4]: not different from vehicle (p<0.1) | average duration in movement in an open field test vs vehicle [3, 5]: no significant difference | average front paw grip strength vs vehicle [3, 5]: no significant difference | average gait length vs vehicle [3, 5]: no significant difference | average gait width vs vehicle [3, 5]: no significant difference | average latency to fall off a metal wire vs vehicle [3, 5]: no significant difference | average latency to fall off a rotating cylinder (rotarod) vs vehicle [3, 5]: 57 days after treatment initiation latency to fall was lower in treated mice as compared to vehicle control (p<0.05) | average regularity of step distance vs vehicle [3, 5]: no significant difference | average uniformity of step alternation vs vehicle [3, 5]: no significant difference | extension reflex vs vehicle [3, 5]: no significant difference | average duration in movement in an open field test vs vehicle [3, 6]: not different from vehicle (p<0.1) | average front paw grip strength vs vehicle [3, 6]: different from vehicle with p<0.1 | average gait length vs vehicle [3, 6]: not different from vehicle (p<0.1) | average gait width vs vehicle [3, 6]: not different from vehicle (p<0.1) | average latency to fall off a metal wire vs vehicle [3, 6]: not different from vehicle (p<0.1) | average latency to fall off a rotating cylinder (rotarod) vs vehicle [3, 6]: the latency to fall was shorter in treated animals (p<0.089) | average regularity of step distance vs vehicle [3, 6]: not different from vehicle (p<0.1) | average uniformity of step alternation (|0.5-(R-L/R-R)|) vs vehicle [3, 6]: not different from vehicle (p<0.1) | extension reflex vs vehicle [3, 6]: not different from vehicle (p<0.1) | average duration in movement in an open field test vs vehicle [3, 7]: no significant difference | average front paw grip strength vs vehicle [3, 7]: no significant difference | average gait length vs vehicle [3, 7]: no significant difference | average gait width vs vehicle [3, 7]: no significant difference | average latency to fall off a metal wire vs vehicle [3, 7]: no significant difference | average latency to fall off a rotating cylinder (rotarod) vs vehicle [3, 7]: no significant difference | average regularity of step distance vs vehicle [3, 7]: no significant difference | average uniformity of step alternation vs vehicle [3, 7]: a significant difference (p<0.05) between vehicle and treatment at 53 days after treatment initiation | extension reflex vs vehicle [3, 7]: no significant difference
